biological target: T1, renin (human plasma) (Homo sapiens, UniProt P00797); test: Test example for renin inhibiting activities: angiotensin I formation in human plasma, measured by radio immunoassay; format: biochemical; details: 0.2M sodium phosphate buffer pH7.4, 37° C. for one hour, read-out: IC50 (mol), 50% inhibition concentration of renin inhibiting activity
T1 construct: from tissue; host or cells: human plasma
T1 sequence (P00797 67-406): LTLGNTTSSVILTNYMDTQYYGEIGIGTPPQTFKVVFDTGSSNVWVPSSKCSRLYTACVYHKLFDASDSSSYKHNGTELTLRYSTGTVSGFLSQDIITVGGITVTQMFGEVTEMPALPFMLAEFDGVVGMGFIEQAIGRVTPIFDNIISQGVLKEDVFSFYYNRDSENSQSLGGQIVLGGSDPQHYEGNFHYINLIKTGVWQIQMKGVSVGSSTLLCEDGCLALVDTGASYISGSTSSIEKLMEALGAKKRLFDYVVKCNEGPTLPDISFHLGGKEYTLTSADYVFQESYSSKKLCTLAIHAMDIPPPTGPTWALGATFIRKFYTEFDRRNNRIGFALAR
Protocol: To 156 μl of a 0.2M sodium phosphate buffer solution (pH7.4), 40 μl of a solution mixture of 34 mM 8-hydroxyquinoline and 100 mM disodium ethylenediaminetetraacetate, 4 μl of dimethyl sulfoxide or a dimethyl sulfoxide solution of an inhibitor and 200 μl of human plasma were added and reacted at 37° C. for one hour. Then, pepstatin was added thereto to terminate the reaction, and the amount of the resulting angiotension I was measured by radio immunoassay whereby the inhibiting activity was determined.

IC50 [nM]	Compound
5	CCCCC(NC(=O)C(Cc1cccc2ccccc12)NC(=O)OCc1ccccc1)C(=O)N[C@@H](CC(C)C)[C@@H](O)CC(CCCO)C(=O)NCC(C)C (mixture of isomers) [Example 14(8), (2RS,4S,5S)-5-(L-N-benzyloxycarbonylnaphthylalanyl-L-norleucyl)amino-4-hydroxy-2-(3-hydroxypropyl)-7-methyl-octanoic acid isobutylamide]
40	CCCCC(NC(=O)C(Cc1cccc2ccccc12)NC(=O)OCc1ccccc1)C(=O)N[C@@H](CC(C)C)[C@@H](O)CC(C(=O)NCC(C)C)C(C)C (mixture of isomers) [comparative compound, (2RS,4S,5S)-5-(L-N-benzyloxycarbonyl-naphthylalanyl-L-norleucyl)amino-4-hydroxy-2-isopropyl-7-methyl-octanoic acid isobutylamide, reference compound]
7	(2RS,4S,5S)-5-(L-N-benzyloxycarbonylnaphthylalanyl-L-norleucyl)amino-4-hydroxy-2-(2-hydroxyethyl)-7-methyloctanoic acid isobutylamide [Example 15(3)]

Source: patent US4851387A, “5-substituted amino-4-hydroxy-pentanoic acid derivatives and their use” (Banyu Pharmaceutical Co., Ltd., priority 1986, dated 1989)
